Read-outs that look alike come from different tables or passages of the source.
What was measured:
[1] = type: in vivo, human
[2] = cited from earlier work
Evaluation of safety = type: in vivo, human; conditions: single oral 50 mg with water, lemon or Seville orange juice; nine subjects
[3] = cited from earlier work; remark: listed apart in the source
[4] = cited from earlier work; remark: listed apart in the source
[5] = Seville orange juice compared with water
[6] = Seville orange juice, healthy volunteers

Compound: CCCc1nn(C)c2c(=O)[nH]c(-c3cc(S(=O)(=O)N4CCN(C)CC4)ccc3OCC)nc12 [sildenafil]
- change in Tmax [1, 5]: non-significant changes
- increase in AUC0–∞ [1, 5]: 44%
- increase in Cmax [1, 5]: 8%
- reduction of apparent oral clearance (CL/F) [1, 5]: 30%
- Tmax ([1]; male, human, plasma, po, 50 mg): ~1 h
- change in bioavailability ([2]; co-administration of ciprofloxacin and clarithromycin): significantly increases
- increase in bioavailability and AUC ([2]; with grapefruit juice, Cmax unaffected): 23%
- adverse effects reported (Evaluation of safety): without reporting any adverse effect

Compound: COc1cc2c(c(OC)c1OC)-c1ccc(OC)c(=O)cc1[C@@H](NC(C)=O)CC2 [colchicine]
- decrease in AUC [3, 6]: 20%
- decrease in Cmax [3, 6]: 24%
- delay in Tmax [3, 6]: 1 h

Compound: COc1ccc2c(c1)[C@]13CCCC[C@@H]1[C@H](C2)N(C)CC3 [dextromethorphan]
- change in bioavailability ([3]; with Seville orange juice, effects lasted 3 days): increased significantly

Compound: CCOC(=O)C1=C(C)NC(C)=C(C(=O)OC)C1c1cccc(Cl)c1Cl (centres unmarked) [felopdipine]
- increase in AUC ([4]; with Seville orange): 93%
- increase in AUC ([4]; with grapefruit): 76%

— PMC5045831 (Drugs in R&D, 2016)
